Laboratory results from US20250171438A1 (Agios Pharmaceuticals, Inc., priority 2022, published 2025).

The compounds below were run against T1, human PAH with the R408W mutation (Homo sapiens, UniProt P00439, R408W) (assay: Cell Based Phenylalanine Flux Assay). Conditions: A375 cells expressing human R408W PAH; 24 hrs compound incubation; 13C-Tyrosine by LC-MS; average where tested multiple times; read-out: AC50.
T1 construct: expressed in transfected cells
T1 sequence (P00439 1-452 R408W): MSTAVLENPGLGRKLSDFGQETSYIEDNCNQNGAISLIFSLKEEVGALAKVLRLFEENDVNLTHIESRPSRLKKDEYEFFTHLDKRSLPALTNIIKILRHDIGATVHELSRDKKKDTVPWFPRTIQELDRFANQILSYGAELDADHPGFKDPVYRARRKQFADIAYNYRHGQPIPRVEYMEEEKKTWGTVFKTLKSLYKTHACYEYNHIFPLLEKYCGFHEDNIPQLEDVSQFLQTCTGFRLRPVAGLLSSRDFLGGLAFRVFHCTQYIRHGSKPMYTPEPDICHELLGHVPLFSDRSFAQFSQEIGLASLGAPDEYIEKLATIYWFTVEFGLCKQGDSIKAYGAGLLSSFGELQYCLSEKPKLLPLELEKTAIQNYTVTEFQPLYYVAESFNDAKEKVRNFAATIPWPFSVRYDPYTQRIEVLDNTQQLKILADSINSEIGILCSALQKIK
Design: scale not given here
`O=C(c1nnc(-c2cnn(C3CCC3)c2)o1)N1CCc2[nH]cnc2[C@@H]1c1nc2ccccc2s1` [Example 1827, (R)-(4-(benzo[d]thiazol-2-yl)-6,7-dihydro-1H-imidazo[4,5-c]pyridin-5(4H)-yl)(5-(1-cyclobutyl-1H-pyrazol-4-yl)-1,3,4-oxadiazol-2-yl)methanone] showed an AC50 of 1000 to 5000 nM. In the case of `Cc1nc(CCCN2CCOCC2)oc1C(=O)N1CCc2[nH]cnc2[C@@H]1c1nc2ccccc2s1` [Example 1702, (R)-(4-(benzo[d]thiazol-2-yl)-6,7-dihydro-1H-imidazo[4,5-c]pyridin-5(4H)-yl)(4-methyl-2-(3-morpholinopropyl)oxazol-5-yl)methanone], the AC50 was over 5000 nM. `Cc1nn(C)cc1-c1ncc(C(=O)N2CCc3[nH]cnc3[C@H]2c2nc3ccccc3s2)o1` [Example 1381] gave an AC50 of under 500 nM. In the case of `O=C(CC1(O)CCC1)N1CCc2[nH]cnc2[C@H]1c1nc2ccccc2s1` [Example 1657], the AC50 was under 500 nM. For `O=C(c1cn(CC(F)(F)F)nc1C(F)F)N1CCc2[nH]cnc2[C@@H]1c1nc2ccccc2s1` [Example 1986, (R)-(4-(benzo[d]thiazol-2-yl)-6,7-dihydro-1H-imidazo[4,5-c]pyridin-5(4H)-yl)(3-(difluoromethyl)-1-(2,2,2-trifluoroethyl)-1H-pyrazol-4-yl)methanone], the AC50 was 1000 to 5000 nM. In the case of `O=C(c1nccs1)N1CCc2[nH]cnc2[C@H]1c1nc2ccccc2[nH]1` [Example 903, (S)-(4-(1H-benzo[d]imidazol-2-yl)-6,7-dihydro-1H-imidazo[4,5-c]pyridin-5(4H)-yl)(thiazol-2-yl)methanone], the AC50 was 500 to 1000 nM. With `O=C(c1cnc(C(F)(F)F)o1)N1CCc2[nH]cnc2[C@@H]1c1nc2c(F)cccc2s1` [Example 1402, (R)-(4-(4-fluorobenzo[d]thiazol-2-yl)-6,7-dihydro-1H-imidazo[4,5-c]pyridin-5(4H)-yl)(2-(trifluoromethyl)oxazol-5-yl)methanone] the AC50 was 1000 to 5000 nM. Compound `O=C(c1nc2cc(F)ccc2s1)N1CCc2[nH]cnc2[C@@H]1c1nc2ccccc2s1` [Example 1096, (R)-(4-(benzo[d]thiazol-2-yl)-6,7-dihydro-1H-imidazo[4,5-c]pyridin-5(4H)-yl)(5-fluorobenzo[d]thiazol-2-yl)methanone] has an AC50 of over 5000 nM. Work on `O=C(c1nnc(C2CC(F)(F)C2)o1)N1CCc2[nH]cnc2[C@@H]1c1nc2c(F)cccc2s1` [Example 1891, (R)-(5-(3,3-difluorocyclobutyl)-1,3,4-oxadiazol-2-yl)(4-(4-fluorobenzo[d]thiazol-2-yl)-6,7-dihydro-1H-imidazo[4,5-c]pyridin-5(4H)-yl)methanone] yielded an AC50 of 1000 to 5000 nM. `O=C(c1oc(NC2CC2)nc1C(F)(F)F)N1CCCc2[nH]cnc2[C@@H]1c1nc2ccccc2s1` [Example 2128, (R)-(4-(benzo[d]thiazol-2-yl)-7,8-dihydroimidazo[4,5-c]azepin-5(1H,4H,6H)-yl)(2-(cyclopropylamino)-4-(trifluoromethyl)oxazol-5-yl)methanone] gave an AC50 of 1000 to 5000 nM. Work on `C[C@@H]1CN(C(=O)c2nnc(-c3ccc(F)cn3)o2)[C@@H](c2nc3ccccc3s2)c2nc[nH]c21` [Example 1753, ((4R,7R)-4-(benzo[d]thiazol-2-yl)-7-methyl-6,7-dihydro-1H-imidazo[4,5-c]pyridin-5(4H)-yl)(5-(5-fluoropyridin-2-yl)-1,3,4-oxadiazol-2-yl)methanone] yielded an AC50 of 1000 to 5000 nM. For `COCc1ccc2c(C(=O)N3CCc4[nH]cnc4[C@H]3c3nc4ccccc4s3)c(C#N)nn2c1` [Example 1866, (S)-3-(4-(benzo[d]thiazol-2-yl)-4,5,6,7-tetrahydro-1H-imidazo[4,5-c]pyridine-5-carbonyl)-6-(methoxymethyl)pyrazolo[1,5-a]pyridine-2-carbonitrile], the AC50 was under 500 nM. Work on `CN(C)CCc1ccc2c(C(=O)N3CCc4[nH]cnc4[C@H]3c3nc4c(F)cccc4s3)cnn2c1` [Example 1599, (S)-(6-(2-(dimethylamino)ethyl)pyrazolo[1,5-a]pyridin-3-yl)(4-(4-fluorobenzo[d]thiazol-2-yl)-6,7-dihydro-1H-imidazo[4,5-c]pyridin-5(4H)-yl)methanone] yielded an AC50 of 500 to 1000 nM. Compound `Cc1nnc(C(=O)N2CCc3[nH]cnc3[C@@H]2c2nc3cccc(F)c3s2)s1` [Example 1332, (R)-(4-(7-fluorobenzo[d]thiazol-2-yl)-6,7-dihydro-1H-imidazo[4,5-c]pyridin-5(4H)-yl)(5-methyl-1,3,4-thiadiazol-2-yl)methanone] has an AC50 of 1000 to 5000 nM. `O=C(c1cnn(CC(F)F)c1Cl)N1CCc2[nH]cnc2[C@H]1c1nc2c(F)cccc2s1` [Example 2017, (S)-(5-chloro-1-(2,2-difluoroethyl)-1H-pyrazol-4-yl)(4-(4-fluorobenzo[d]thiazol-2-yl)-6,7-dihydro-1H-imidazo[4,5-c]pyridin-5(4H)-yl)methanone] gave an AC50 of under 500 nM. For `O=C(c1ncc(Cl)s1)N1CCc2[nH]cnc2[C@H]1c1nc2ccccc2s1` [Example 1053], the AC50 was 500 to 1000 nM. `Cc1nc(C)c(C(=O)N2CCc3[nH]cnc3[C@@H]2c2nc3ccccc3s2)s1` [Example 1178, (R)-(4-(benzo[d]thiazol-2-yl)-6,7-dihydro-1H-imidazo[4,5-c]pyridin-5(4H)-yl)(2,4-dimethylthiazol-5-yl)methanone] gave an AC50 of over 5000 nM. For `O=C(Cc1nc(C(F)(F)F)cs1)N1CCc2[nH]cnc2[C@H]1c1nc2ccccc2s1` [Example 1033], the AC50 was 500 to 1000 nM. In the case of `O=C(CCc1nccs1)N1CCc2[nH]cnc2[C@H]1c1nc2ccccc2s1` [Example 1003], the AC50 was 500 to 1000 nM. With `O=C(c1cn(-c2ccccn2)nc1Cl)N1CCc2[nH]cnc2[C@@H]1c1nc2c(F)cccc2s1` [Example 1770, (R)-(3-chloro-1-(pyridin-2-yl)-1H-pyrazol-4-yl)(4-(4-fluorobenzo[d]thiazol-2-yl)-6,7-dihydro-1H-imidazo[4,5-c]pyridin-5(4H)-yl)methanone] the AC50 was 1000 to 5000 nM. In the case of `O=C(c1nnc(-c2c[nH]nc2C(F)(F)F)o1)N1CCc2[nH]cnc2[C@@H]1c1nc2ccccc2s1` [Example 1966, (R)-(4-(benzo[d]thiazol-2-yl)-6,7-dihydro-1H-imidazo[4,5-c]pyridin-5(4H)-yl)(5-(3-(trifluoromethyl)-1H-pyrazol-4-yl)-1,3,4-oxadiazol-2-yl)methanone], the AC50 was 1000 to 5000 nM.

Same assay, conditions: A375 cells expressing human R408W PAH; 24 hrs with compound; 13C-Tyrosine by LC-MS; average where tested multiple times
`COCCc1ccc2c(C(=O)N3CCc4[nH]cnc4C3c3nc4ccccc4s3)c(C(F)F)nn2c1` (centres unmarked) was tested, and the AC50 was “E, E”. In the case of `CC(C)(O)c1nc(C(F)F)c(C(=O)N2CCc3[nH]cnc3C2c2nc3ccccc3[nH]2)o1` (centres unmarked), the AC50 was “E, E”.

Same assay, conditions: A375 cells expressing human R408W PAH; 24 hrs with compound; 13C-Tyrosine by LC-MS; average where tested multiple times; read-out: AC50
`CC(C)(O)c1nsc(C(=O)N2CCc3[nH]cnc3C2c2nc3c(F)cccc3s2)n1` (centres unmarked) gave an AC50 of over 5000 nM. Work on `CC(C)(O)c1cc(C(=O)N2CCc3[nH]cnc3C2c2nc3c(F)cccc3s2)[nH]n1` (centres unmarked) yielded an AC50 of 1000 to 5000 nM. In the case of `Cc1nnc(CCC(=O)N2CCc3[nH]cnc3C2c2nc3ccccc3s2)o1` (centres unmarked), the AC50 was 1000 to 5000 nM. With `CC1CN(C(=O)c2cnc(N3CCOCC3)o2)C(c2nc3ccccc3s2)c2nc[nH]c21` (centres unmarked) the AC50 was 1000 to 5000 nM. `Cc1ncoc1C(=O)N1CC(C)(C)c2[nH]cnc2C1c1nc2ccccc2s1` (centres unmarked) gave an AC50 of over 5000 nM. `N#Cc1ccn2ncc(C(=O)N3CCc4[nH]cnc4C3c3nc4ccc(Cl)cc4[nH]3)c2c1` (centres unmarked) gave an AC50 of over 5000 nM. `Cc1nnc(CC(=O)N2CCc3[nH]cnc3[C@@H]2c2nc3c(F)cccc3s2)s1` (single isomer, unassigned) gave an AC50 of over 5000 nM. `O=C(CCc1nccs1)N1CCc2[nH]cnc2C1c1nc2ccc(Br)cc2s1` (centres unmarked) was tested, and the AC50 was 1000 to 5000 nM. `Cn1nc(C(N)=O)cc1C(=O)N1CCc2[nH]cnc2C1c1nc2c(F)cccc2s1` (centres unmarked) showed an AC50 of 1000 to 5000 nM.
